Data on three compounds can be found in PubChem BioAssay (NCI).

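A five-concentration, 48-hour dose response in 96-well plates underlies each endpoint, interpolated linearly between surrounding concentrations. TGI denotes the concentration required for complete inhibition of growth.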

Test systems include DLD-1 colon; DMS 114 small cell lung; DMS 273 small cell lung; HOP-18 NSCLC; LXFL 529 NSCLC; RXF-631 renal; SNB-78 CNS; XF 498 CNS.
Common to all, as to experiment: inhibition of tumour cell growth, NCI panel, 48 h

With `COC(=O)NC(=O)c1cn(CCCOC(=O)CCCCCCCCC(=O)OCCCn2cc(C(=O)NC(=O)OC)c(=O)[nH]c2=O)c(=O)[nH]c1=O`, the TGI with DLD-1 colon, in the assay with DMS 114 small cell lung, in the assay with DMS 273 small cell lung, in the assay with HOP-18 NSCLC, in the assay with LXFL 529 NSCLC and with RXF-631 renal was more than 100 µM throughout. For the same compound, the TGI was more than 100 µM with SNB-78 CNS and 58.8 µM in the assay on XF 498 CNS.

As to `CCCCCCCCCCCC(=O)c1c(O)cccc1O`, the TGI was 33.8 µM in the assay with DLD-1 colon; 34 µM in the assay with DMS 114 small cell lung; 34 µM in the assay on DMS 273 small cell lung; 31 µM in the assay on HOP-18 NSCLC; 32.6 µM in the assay on LXFL 529 NSCLC; 35.5 µM in the assay on RXF-631 renal. Moreover, the TGI in the assay on SNB-78 CNS stood at 43.9 µM; with XF 498 CNS, 32.4 µM.

For the compound `C/C(CC(=O)NC1=CC=C(NC(=O)C/C(C)=N\Nc2ccccc2)CC1)=N/Nc1ccccc1`, the TGI in the assay with DLD-1 colon, in the assay with DMS 114 small cell lung, with DMS 273 small cell lung, with HOP-18 NSCLC, in the assay on LXFL 529 NSCLC and with RXF-631 renal was more than 100 µM in each case. For the same compound, the TGI in the assay on SNB-78 CNS and with XF 498 CNS was more than 100 µM in each case.
